Assay results as given in patent publication US6509362B2, “N-phenylamide and N-pyridylamide derivatives, method of preparing them and pharmaceutical compositions containing them” (Merck Patent Gesellschaft mit Beschraenkter Haftung, priority 1997, dated 2003).

Legend:
hepatic ACAT = assay: Test A: in vitro hepatic ACAT inhibition in rat liver microsomes; type: biochemical, rat (male Wistar); settings: 14C-oleyl coenzyme A, read-out: IC50 (concentration of compound inhibiting the ACAT activity by 50%)
Method: Test A: measurement of in vitro hepatic ACAT inhibition in rats: male Wistar rats weighing 220-250 g were sacrificed by cervical dislocation; the liver was removed and homogenised to prepare the microsomal fraction by ultracentrifugation; these microsomes were incubated with ^14C-oleyl coenzyme A according to the method described by P. J. GILLIES et al., Exp. and Mol. Pathol. 1986, 44, 329-339; lipids were extracted from the incubate with a methanol-chloroforme mixture and ^14C-oleyl cholesterol was separated by TLC; the latter represented the measurement of the ACAT activity and the results were expressed in inhibitory concentration 50 (IC50) representing the concentration of compound inhibiting the ACAT activity by 50%.

[1] = system: intestinal absorption of cholesterol; assay: Test B: intestinal absorption of cholesterol in rats; type: in vivo, rat (male Wistar); settings: Rattus norvegicus; per os, rats fasted 24 h, triton WR 1339 IV, 3H-cholesterol in serum; read-out: ED50 (quantity of compound inhibiting the intestinal absorption of cholesterol by 50%)
Method: Test B: measurement of intestinal absorption of cholesterol in rats; […]; one hour later, […]; three hours later, 1 ml of blood was taken from the retro-orbital sinus: the blood radioactivity determined on 0.1 ml of serum represented the measurement of the absorption of ^3H-cholesterol. The results were expressed in effective dose 50 (ED50) in mg per kg of animal and represented the quantity of compound inhibiting the intestinal absorption of cholesterol by 50%.

[2] = system: male Wistar rat fed a 2.5% cholesterol enriched diet; assay: Test C: hypercholesterolemia model, cholesterol-fed rat; type: in vivo; settings: dose 0.78 mg/kg, oral
Method: (§1) Test C: hypercholesterolemia model; claim 1 compounds were tested by oral route in animals subjected to a cholesterol-rich diet;

[3] = system: rabbit fed a 0.5% cholesterol enriched diet; assay: Test C: hypercholesterolemia model, cholesterol-fed rabbit; type: in vivo; settings: dose 0.1 mg/kg, oral
Method: as §1

Compound	IC50 (hepatic ACAT)	ED50 [1]	total cholesterol lowered ([2]; 2.5% cholesterol diet for 8 days, treated for 2 days)	lipoprotein fraction on which the effect was observed ([2]; cholesterol-fed rat)	total cholesterol decreased ([3]; 0.5% cholesterol diet for 15 days, treated simultaneously)	lipoprotein fraction on which the effect was observed ([3]; cholesterol-fed rabbit)	melting point
CSc1cc(C)nc(SC)c1NC(=O)CC1=C(c2ccccc2)c2ccccc2OC1 [Example 1, N-[2,4-Dimethylthio-6-methyl-3-pyridyl]-2-(4-phenyl-2H-3-benzo[b]pyranyl)acetamide]	94 nM	0.005 mg/kg	50%	mainly observed on VLDL	70%	mainly observed on VLDL	–
CSc1cc(C)nc(SC)c1NC(=O)CC1=C(c2ccc(F)cc2)c2ccccc2OC1 [Example 6]	31 nM	0.023 mg/kg	–	–	–	–	234 to 236 °C
CSc1cc(C)nc(SC)c1NC(=O)CC=CC1=C(c2ccccc2)c2ccccc2OC1 [Example 17, N-[2,4-Dimethylthio-6-methyl-3-pyridyl]-4-(4-phenyl-2H-3-benzo[b]pyranyl)but-3-enamide]	–	–	–	–	–	–	204 to 206 °C
CSc1cc(C)nc(SC)c1NC(=O)CC1=C(c2ccccc2)c2ccccc2CC1 [Example 4]	74 nM	0.038 mg/kg	–	–	–	–	218 to 220 °C
